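Test compounds were applied to cells in 96-well plates for 48 hours at 5 doses. TGI: total growth inhibition.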
What was measured:
Experiment in all cases: inhibition of tumour cell growth, NCI panel, 48 h
OVCAR-8 ovarian = test system: OVCAR-8 ovarian
T-47D breast = test system: T-47D breast
SN12C renal = test system: SN12C renal
MDA-MB-435 = test system: MDA-MB-435
MDA-N = test system: MDA-N
COLO 205 colon = test system: COLO 205 colon
SK-MEL-2 melanoma = test system: SK-MEL-2 melanoma
MCF7 breast = test system: MCF7 breast
SK-MEL-5 melanoma = test system: SK-MEL-5 melanoma
HT29 colon = test system: HT29 colon

Row | SMILES | TGI (OVCAR-8 ovarian) [µM] | TGI (T-47D breast) [µM] | TGI (SN12C renal) [µM] | TGI (MDA-MB-435) [µM] | TGI (MDA-N) [µM] | TGI (COLO 205 colon) [µM] | TGI (SK-MEL-2 melanoma) [µM] | TGI (MCF7 breast) [µM] | TGI (SK-MEL-5 melanoma) [µM] | TGI (HT29 colon) [µM]
1 | CC(C)NC(=O)OCc1c(COC(=O)NC(C)C)c(-c2ccc[n+](COC(=O)C3CCCCC3)c2)n2c1CCC2 | > 100 | > 100 | > 100 | > 100 | > 100 | > 100 | > 100 | > 100 | > 100 | > 100
2 | CC(C)(C)OC(=O)N1CC(COS(C)(=O)=O)c2ccc(O)cc21 (stereo not given) | 4.51 | 11.1 | 6.77 | 3.21 | 3.98 | 3.31 | 2.9 | 7.49 | 2.92 | 10.6
3 | COc1cc(C2c3cc4c(c(O)c3C(=O)C3CCC(=O)N32)OCO4)cc(OC)c1OC (stereo not given) | > 100 | > 100 | > 100 | 58.9 | 91.9 | > 100 | > 100 | > 100 | > 100 | > 100
4 | COc1cccc(C(=O)C(O)c2cccc(OC)c2OC)c1OC (stereo not given) | > 100 | > 100 | > 100 | > 100 | > 100 | > 100 | > 100 | > 100 | > 100 | > 100
5 | c1ccc(C2(c3cc4ccccc4[nH]3)OCCO2)cc1 | > 100 | > 100 | > 100 | > 100 | > 100 | 65.2 | > 100 | > 100 | 57 | > 100
6 | Fc1ccccc1N=c1oc2ccc(Br)cc2cc1-c1nc2ccccc2[nH]1 | > 36.5 | > 100 | > 41.1 | > 64.6 | > 42.6 | > 100 | 26.6 | > 100 | 35.7 | > 54.8
7 | CCOC(=O)C1C(=O)C=C(c2cc(C)ccc2O)CC1c1cccc(Br)c1 (stereo not given) | 92.7 | 72 | 33.1 | 8.81 | 21.2 | 31.1 | 39.4 | 87.1 | 28.5 | 37.5
8 | Cc1[nH]c(=O)nc2c1C(=O)N(C(C)C)C(NC(C)C)S2 (stereo not given) | > 100 | > 100 | > 100 | > 100 | > 100 | > 100 | > 100 | > 100 | > 100 | > 100
9 | Cc1ccc(-c2cn3c(nc4ccccc43)c(C)n2)cc1 | > 100 | > 30.1 | > 100 | 97 | > 100 | > 100 | > 63.8 | > 100 | 40.3 | > 100
10 | COC(=O)[C@H]1ON2O[C@H](OC3CCCC[C@@H]3c3ccccc3)C[C@@H]3CC[C@H]1[C@@]32C (stereo not given in full) | > 100 | > 100 | > 100 | > 100 | > 100 | > 100 | > 100 | > 100 | > 100 | > 100
11 | O=C(O)CCCCCNC(=O)CCC(CN(CC(=O)OCc1ccccc1)CC(=O)OCc1ccccc1)N(CC(=O)OCc1ccccc1)CC(=O)OCc1ccccc1 (stereo not given) | 30.1 | 36.9 | 36.2 | 35.4 | 34.8 | 33.7 | 32 | 36.2 | 32.2 | 33.7
12 | CN(C)CCCNc1ccc2nnn3c4ccc([N+](=O)[O-])cc4c(=O)c1c23 | 5.38 | 27.9 | 9.5 | 12.3 | 15.9 | 5.35 | 15 | 8.08 | 5.97 | 7.11
13 | Cc1cc(C)n(CN(Cn2nc(C)cc2C)c2ccc(N(Cn3nc(C)cc3C)Cn3nc(C)cc3C)cc2)n1 | 77.4 | 51.8 | 51.9 | 35.9 | 38.4 | 31.5 | 50.1 | 44.4 | 30.9 | 45
14 | O=C1NC(N2CCCC(CO)C2)=N/C1=C\c1ccc(O)cc1 (stereo not given) | > 100 | > 100 | > 100 | > 100 | > 100 | > 100 | > 100 | > 100 | > 100 | > 100
15 | COC[C@@H](N=Cc1ccc(OC)cc1)C(C)C | > 100 | > 100 | > 100 | > 100 | > 100 | > 100 | > 100 | > 100 | > 100 | > 100
16 | CCO/C=N/C1=C(C#N)C(c2ccc(OC)c(OC)c2)c2c(-c3ccccc3)nn(-c3ccccc3)c2O1 (stereo not given) | 47.6 | 60.5 | 38.9 | 33.1 | 35.5 | 27.1 | 43.8 | 53.1 | 24.4 | 52.5
17 | O=S(=O)(N1CCCCN(S(=O)(=O)C(F)(F)F)CCCN(S(=O)(=O)C(F)(F)F)CCCN(S(=O)(=O)C(F)(F)F)CCCCN(S(=O)(=O)C(F)(F)F)CCCN(S(=O)(=O)C(F)(F)F)CCC1)C(F)(F)F | > 100 | > 100 | > 100 | > 100 | > 100 | > 100 | > 100 | > 100 | > 100 | > 100

Row | SMILES | TGI (OVCAR-8 ovarian) [µM] | TGI (T-47D breast) [µM] | TGI (SN12C renal) [µM] | TGI (MDA-MB-435) [µM] | TGI (MDA-N) [µM] | TGI (COLO 205 colon) [µM] | TGI (SK-MEL-2 melanoma) [µM] | TGI (MCF7 breast) [µM] | TGI (SK-MEL-5 melanoma) [µM] | TGI (HT29 colon) [µM]
18 | O=C1N[C@@H](c2c[nH]c3ccc(Br)cc23)C(=O)N[C@H]1c1c[nH]c2ccc(Br)cc12 | 26 | 36.4 | 27.4 | 16.8 | 20.7 | 20 | 29.4 | 35.2 | 17.7 | 20.2
19 | CC(=O)CC(=O)Nn1c(-c2cccs2)nc2ccc(I)cc2c1=O | > 100 | > 100 | > 100 | > 100 | > 100 | > 100 | > 100 | > 100 | > 65.5 | > 100
20 | COc1cc2c(cc1C)NC(=O)/C2=C/c1c(Cl)n(C)c2ccccc12 | 35.8 | 19.3 | 33.3 | 3.69 | 5.53 | 31.2 | 30.4 | 25.7 | 22 | 22.5
21 | COC(=O)C(I(OS(=O)(=O)c1ccc(C)cc1)c1ccccc1)=P(c1ccccc1)(c1ccccc1)c1ccccc1 | 48.1 | 48.2 | > 100 | 36.5 | 31.5 | 13.1 | 36.4 | 94.5 | 26.1 | 42.1
22 | CCC1(CC)C(=O)N(C(=O)c2ccc(Cl)cc2)N(C(=O)c2ccccc2Cl)C1=O | > 100 | > 100 | > 100 | 43.9 | > 100 | > 100 | > 100 | > 100 | > 100 | 22.6
23 | COC(=O)c1ccc2[nH]c3c(c2c1)CC(=O)Nc1ccccc1-3 | > 100 | > 100 | > 100 | > 100 | > 100 | > 100 | > 100 | > 100 | > 100 | > 100
24 | C=CC(C)(C)c1cc([C@@H]2COc3cc(O)ccc3C2=O)c(O)c(OC)c1OC | 54.3 | 35.2 | 31.3 | 21.5 | 26 | 45 | 33.3 | 31.8 | 22.7 | 47.3
25 | O=C1c2c(ccc3c2CCCC3)CC12Cc1ccccc1C2 | > 100 | > 100 | > 100 | > 100 | > 100 | 65.2 | 39.6 | > 76.6 | 22.3 | > 57.1
26 | COc1c(-c2ccc3c(c2)OCO3)oc2cc3c(c(OC)c2c1=O)OCO3 | 42.4 | 36.7 | 47.1 | 36.2 | 44.4 | > 100 | 56.9 | 40.6 | 35.5 | > 100
27 | CC(C)(C)C(=O)C(C#N)C(=O)C(C)(C)C | > 100 | > 100 | > 100 | > 100 | > 100 | > 100 | > 100 | > 100 | > 100 | > 100
28 | COc1cc(NS(C)(=O)=O)ccc1N1Cc2cnc3ccc4[nH]ccc1c4c23 | > 100 | 83.6 | 66.6 | > 100 | > 100 | > 100 | 64.6 | > 100 | 75.8 | > 100
29 | CN1CCN(c2nc3c(c(=O)n(C)c(=O)n3C)n2C)CC1 | > 100 | > 100 | > 100 | > 100 | > 100 | > 100 | > 100 | > 100 | > 100 | > 100
30 | O=c1n(CCO)nc2n1CCCN2 | > 100 | > 100 | > 100 | > 100 | > 100 | > 100 | > 100 | > 100 | > 100 | > 100
31 | COc1cc(OC)cc(N(C)Cc2cnc3nc(N)nc(N)c3c2C)c1 | > 100 | > 100 | > 100 | > 100 | > 100 | > 100 | > 100 | > 100 | > 100 | > 100
32 | O=C1CSC(c2ccc(Cl)cc2)N1c1ccc(-n2c(-c3ccccc3)nc3ccccc3c2=O)cc1 (stereo not given) | > 100 | > 100 | > 100 | > 100 | > 100 | > 100 | > 100 | > 100 | > 100 | > 100
33 | COc1ccc(N=Nc2ccc3oc(=O)c(C(=O)Nc4ccc(OC)cc4)cc3c2)cc1 | 37.8 | 29.8 | 45.2 | 54.8 | > 100 | 43.7 | 39.5 | 38 | 33.3 | 55.5

— PubChem BioAssay (NCI)
